In brackets after ≈: the same amount, converted by molar mass.
What was measured:
[1] = Metabolic stability in mouse liver microsomes assessed as parent compound remaining after 10 mins; assay type: ADME, Microsome; settings: read-out: Stabilty
Cytochrome P450 2C19 = Cytochrome P450 2C19 (Homo sapiens, UniProt P33261); test: Inhibition of recombinant CYP2C19 (unknown origin); assay type: ADME
Tumor necrosis factor = Tumor necrosis factor (Homo sapiens, UniProt P01375); test: Inhibition of human recombinant His-tagged TNF-alpha-mediated E-selectin expression in HUVEC cells preincubated for 30 mins in presence of TNFalpha and measured after 3 hrs by flow cytometry analysis; assay type: cell-based
Tumor necrosis factor, sequence (P01375 whole entry): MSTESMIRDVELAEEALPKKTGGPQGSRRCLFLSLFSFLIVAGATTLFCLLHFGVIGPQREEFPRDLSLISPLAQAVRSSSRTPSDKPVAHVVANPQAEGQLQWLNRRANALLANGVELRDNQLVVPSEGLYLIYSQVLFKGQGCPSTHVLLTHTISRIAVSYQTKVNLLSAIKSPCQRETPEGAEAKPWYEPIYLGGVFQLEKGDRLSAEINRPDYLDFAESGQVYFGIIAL

[2] = Permeability of the compound across basolateral to apical side of membrane in human Caco-2 cells; assay type: ADME, cell-based; settings: read-out: permeability
Cytochrome P450 1A2 = molecular target: T1, Cytochrome P450 1A2 (Homo sapiens, UniProt P05177); test: Inhibition of recombinant CYP1A2 (unknown origin); assay type: ADME
T1 sequence (P05177 whole entry): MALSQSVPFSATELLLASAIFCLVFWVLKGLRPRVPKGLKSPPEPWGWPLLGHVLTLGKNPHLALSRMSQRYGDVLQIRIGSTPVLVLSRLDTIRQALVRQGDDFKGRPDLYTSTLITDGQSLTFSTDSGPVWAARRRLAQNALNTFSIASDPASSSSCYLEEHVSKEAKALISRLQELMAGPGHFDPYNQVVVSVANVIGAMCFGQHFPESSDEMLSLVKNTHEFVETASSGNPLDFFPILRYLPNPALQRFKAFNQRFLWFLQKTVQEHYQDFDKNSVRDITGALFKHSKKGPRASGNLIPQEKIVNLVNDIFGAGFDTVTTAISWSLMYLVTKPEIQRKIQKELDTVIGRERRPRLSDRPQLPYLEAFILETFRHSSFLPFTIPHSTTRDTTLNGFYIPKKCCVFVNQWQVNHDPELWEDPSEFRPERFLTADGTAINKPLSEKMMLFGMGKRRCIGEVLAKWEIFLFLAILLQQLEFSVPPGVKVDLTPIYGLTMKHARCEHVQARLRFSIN

Cytochrome P450 2D6 = Cytochrome P450 2D6 (Homo sapiens, UniProt P10635); test: Inhibition of recombinant CYP2D6 (unknown origin); assay type: ADME
Cytochrome P450 2D6, sequence (P10635 whole entry): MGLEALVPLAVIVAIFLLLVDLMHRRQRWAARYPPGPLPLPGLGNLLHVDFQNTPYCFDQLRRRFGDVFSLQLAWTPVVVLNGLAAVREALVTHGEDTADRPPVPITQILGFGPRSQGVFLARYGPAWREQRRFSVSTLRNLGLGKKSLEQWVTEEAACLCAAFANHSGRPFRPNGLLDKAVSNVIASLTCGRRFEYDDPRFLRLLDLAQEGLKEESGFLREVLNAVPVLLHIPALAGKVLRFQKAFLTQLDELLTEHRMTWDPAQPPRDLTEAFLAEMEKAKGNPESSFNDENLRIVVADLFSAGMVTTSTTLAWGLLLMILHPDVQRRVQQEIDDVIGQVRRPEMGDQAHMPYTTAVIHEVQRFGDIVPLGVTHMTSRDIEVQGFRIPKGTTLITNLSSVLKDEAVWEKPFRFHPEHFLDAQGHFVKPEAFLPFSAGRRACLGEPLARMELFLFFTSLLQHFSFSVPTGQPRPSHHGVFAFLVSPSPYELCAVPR

[3] = Protein binding in human assessed as unbound fraction; assay type: ADME
[4] = Protein binding in rat assessed as unbound fraction; assay type: ADME
[5] = Solubility of compound; assay type: physicochemical
[6] = Total AUC in mouse at 2 mg/kg, po; assay type: ADME, organism-based; set-up: time AUCmax, route oral, dose 2 mg/kg; settings: in vivo
[7] = Clearance in mouse at 0.5 mg/kg, iv; assay type: ADME, organism-based; settings: in vivo
[8] = Volume of distribution at steady state in mouse at 0.5 mg/kg, iv; assay type: ADME, organism-based; settings: in vivo, read-out: Vdss
[9] = Drug exposure in TNFalpha-induced C57BL/6J mouse at 25 mg/kg, po pretreated with compound prior to 1 hr of TNFalpha challenge and measured at 3 hrs post dose; assay type: ADME, organism-based; settings: in vivo, read-out: Drug uptake
Mus musculus [10] = test: Antiarthritic activity against anticollagen antibody-induced arthritis BALB/c mouse model assessed as reduction in paw inflammation administered orally twice a day followed by LPS stimulation after 6 hrs measured until day 12; assay type: functional, organism-based; settings: dose 2-10 mg/kg, time 12.0 day
Mus musculus [11] = test: Antiarthritic activity against anticollagen antibody-induced arthritis BALB/c mouse model assessed as reduction in LPS-induced IL-17a production administered orally twice daily followed by LPS stimulation after 6 hrs measured on day 12 by RT-PCR analysis; assay type: functional, organism-based; settings: dose 2-10 mg/kg, time 12.0 day
Mus musculus [12] = test: Antiarthritic activity against anticollagen antibody-induced arthritis BALB/c mouse model assessed as reduction in LPS-induced cells expressing CD3 receptor administered orally twice daily followed by LPS stimulation after 6 hrs measured on day 12 by RT-PCR analysis; assay type: functional, organism-based; settings: dose 2-10 mg/kg, time 12.0 day
[13] = Terminal drug exposure in anticollagen antibody-induced arthritis BALB/c mouse model at 2 mg/kg, po BID followed by LPS stimulation after 6 hrs measured on day 12; assay type: ADME, organism-based; settings: in vivo, time 12 day, read-out: Drug uptake
[14] = Selectivity ratio of drug exposure in TNFalpha-induced C57BL/6J mouse at 25 mg/kg, po at 3 hrs post dose to IC50 for inhibition of human TNFalpha expressed in HEK-Blue-CD40L cells assessed as inhibition of NFkappaB activation by quanti-blue based SEAP assay
[15] = Selectivity ratio of drug exposure in anticollagen antibody-induced arthritis BALB/c mouse model at 10 mg/kg, po BID for 12 days to IC50 for inhibition of human TNFalpha expressed in HEK-Blue-CD40L cells assessed as inhibition of NFkappaB activation by quanti-blue based SEAP assay
[16] = molecular target: T2, Tumor necrosis factor ligand superfamily member 6 (Homo sapiens, UniProt P48023); test: Inhibition of FasL (unknown origin)
T2 sequence (P48023 whole entry): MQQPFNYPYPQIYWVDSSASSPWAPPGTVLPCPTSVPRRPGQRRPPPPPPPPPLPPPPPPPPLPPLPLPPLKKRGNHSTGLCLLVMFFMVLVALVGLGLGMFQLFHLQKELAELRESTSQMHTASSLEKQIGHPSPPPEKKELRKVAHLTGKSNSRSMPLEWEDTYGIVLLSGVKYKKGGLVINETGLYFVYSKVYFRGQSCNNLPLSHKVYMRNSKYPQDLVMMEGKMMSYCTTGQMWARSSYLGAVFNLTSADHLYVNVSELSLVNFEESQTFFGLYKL

Lymphotoxin-beta = molecular target: T3, Lymphotoxin-beta (Homo sapiens, UniProt Q06643); test: Inhibition of LTbeta (unknown origin)
T3 sequence (Q06643 whole entry): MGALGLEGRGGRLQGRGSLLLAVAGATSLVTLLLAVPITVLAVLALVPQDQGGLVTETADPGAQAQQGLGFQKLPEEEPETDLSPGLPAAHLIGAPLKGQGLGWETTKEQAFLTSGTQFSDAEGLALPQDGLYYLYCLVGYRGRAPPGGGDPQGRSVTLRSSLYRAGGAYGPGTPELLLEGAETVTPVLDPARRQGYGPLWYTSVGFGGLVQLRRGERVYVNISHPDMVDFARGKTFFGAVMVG

[17] = molecular target: T4, Tumor necrosis factor receptor superfamily member 1A (Homo sapiens) (UniProt P19438); test: Binding affinity to TNFR1 (unknown origin) assessed as sedimentation coefficient (S) value at 25 uM by ultracentrifugation analysis (reference value: 2.2)
T4 sequence (whole entry): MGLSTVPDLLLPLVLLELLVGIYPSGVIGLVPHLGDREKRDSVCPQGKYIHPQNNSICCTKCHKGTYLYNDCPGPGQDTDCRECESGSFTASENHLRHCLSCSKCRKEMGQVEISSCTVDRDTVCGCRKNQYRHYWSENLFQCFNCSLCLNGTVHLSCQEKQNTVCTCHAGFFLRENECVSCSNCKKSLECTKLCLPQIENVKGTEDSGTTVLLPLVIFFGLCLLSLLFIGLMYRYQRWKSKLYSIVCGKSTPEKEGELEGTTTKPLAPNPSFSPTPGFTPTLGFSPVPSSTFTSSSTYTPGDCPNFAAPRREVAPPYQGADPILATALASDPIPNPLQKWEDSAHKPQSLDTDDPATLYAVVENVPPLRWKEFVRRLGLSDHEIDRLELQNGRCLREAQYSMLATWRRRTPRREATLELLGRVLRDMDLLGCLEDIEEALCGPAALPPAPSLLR

Cytochrome P450 2C19, sequence (P33261 whole entry): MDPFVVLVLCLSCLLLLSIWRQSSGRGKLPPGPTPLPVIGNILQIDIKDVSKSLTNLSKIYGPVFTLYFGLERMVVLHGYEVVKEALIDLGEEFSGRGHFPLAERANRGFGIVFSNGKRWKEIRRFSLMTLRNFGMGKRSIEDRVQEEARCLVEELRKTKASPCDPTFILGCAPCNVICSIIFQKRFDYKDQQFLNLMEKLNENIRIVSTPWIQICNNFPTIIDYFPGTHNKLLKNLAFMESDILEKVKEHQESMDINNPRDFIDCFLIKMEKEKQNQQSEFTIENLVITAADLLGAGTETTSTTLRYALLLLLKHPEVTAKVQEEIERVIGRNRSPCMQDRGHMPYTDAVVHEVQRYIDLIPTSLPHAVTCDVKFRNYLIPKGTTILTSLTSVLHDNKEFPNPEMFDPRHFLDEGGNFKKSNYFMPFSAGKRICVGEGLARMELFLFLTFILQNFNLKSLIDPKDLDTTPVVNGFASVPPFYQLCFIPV

remaining at 10 min [1]: 86%
IC50 (Cytochrome P450 2C19): > 20 µM
Papp B→A [2]: 8 ×10⁻⁶ cm/s
IC50 (Cytochrome P450 1A2): > 20 µM
IC50 (Cytochrome P450 2D6): > 20 µM
Fu [3]: 0.35%
Fu [4]: 0.4%
solubility [5]: 1 µg/mL (≈ 2.02 µM)
AUC [6]: 5.9 µM·h
clearance [7]: 6.6 mL/min/kg
Vd [8]: 3.2 L/kg
concentration at 3 h [9]: 1860 nM
concentration at 288 h [13]: 340 nM
Structure (SMILES): Cc1nc2cc(F)c(-c3cnc(C(C)(C)O)nc3)nc2c(N[C@H](C)c2cc(C#N)ccc2F)c1Cl
IC50 (Tumor necrosis factor): 0.03 µM
Activity (Mus musculus [10]): Dose-dependent effect
Activity (Mus musculus [11]): Dose-dependent effect
Activity (Mus musculus [12]): Dose-dependent effect
Selectivity ratio [14]: 7
Selectivity ratio [15]: 4.4
IC50 [16]: > 10 µM
IC50 (Lymphotoxin-beta): > 10 µM
Activity index [17]: 2.2
